{
  "source": "patent US7029915B2",
  "about": "“Method for differentiating rat hepatic stem cells to insulin-producing cells” (University of Florida Research Foundation, Inc., priority 2002, dated 2006)",
  "key": {"hepatic stem cells": {"test_system": "hepatic stem cells", "experiment": "Morphology of spheroid cell clusters in high-glucose hepatic stem cell cultures", "format": "cell-based, rat", "details": "five to seven days in 10 mM nicotinamide, high glucose (23 mM) culture", "procedure": "To induce trans-differentiation, the cells were replated and cultured in RPMI 1640 medium supplemented with 10% FCS and 17.5 mM (23 mM final concentration) glucose. After about two months, scattered small spheroid cell clusters began to form on top of the confluent cell monolayer. Individual spheroids from these cell cultures were selected for clonal passage and were subjected several times to the high glucose (23 mM) culturing process described above. The resultant cells reached confluence, and by day 14 formed additional clusters when maintained under the high glucose conditions. […] Multiple clusters also became connected by duct-like structures."}, "[1]": {"test_system": "trans-differentiated hepatic stem cells", "experiment": "Insulin content and secretion by immunoprecipitation and Western blotting", "format": "cell-based, rat", "procedure": "Measurement of insulin content and secretion by immunoprecipitation and Western blotting. Confluent cultures of trans-differentiated hepatic stem cells were maintained in RPMI 1640 plus 10% fetal calf serum in the presence or absence of 10 mM nicotinamide for 7 days. The cells were then switched to serum-free medium containing 0.5% BSA for 5 hrs, washed twice with serum-free medium, then stimulated with an additional 17.5 mM glucose for 2 hrs. The culture medium was collected and stored at −70° C. for assay of secreted insulin. Intracellular insulin was extracted with lysis buffer. The presence of insulin in the culture media and cell lysates was determined by immunoprecipitation with anti-rabbit-insulin polyclonal antibodies (Santa Cruz Biotechnology), followed by separation of the precipitated material by 18% SDS-PAGE, transfer to nylon membrane, and blotting with anti-insulin antibodies as described (Yang, et al., J. Biol. Chem. 269:7156–7162, 1994). Cell lysates (150 μg) or culture media (1 ml) from each culture were used for the immunoprecipitation. Normal rabbit serum was used as primary antibody control, and culture medium containing 0.5% BSA was used as a control for secreted insulin measurements. […] Insulin content in cells and in the media was determined by pooling cell lysates and culture medium from three separate cultures."}},
  "data": [
    {"smiles": "NC(=O)c1cccnc1", "note": "[nicotinamide]", "values": [
      {"measurement": "number and dimension of spheroid cell clusters", "setting": "hepatic stem cells", "result": "markedly increased"},
      {"measurement": "increase of insulin in cell lysates versus untreated cells (densitometric analysis)", "setting": "[1]; 10 mM nicotinamide for 7 days before stimulation with additional 17.5 mM glucose for 2 hrs, cell lysates", "result": 3.4, "unit": "times"},
      {"measurement": "levels of insulin detected in cell lysates and secreted into culture medium", "setting": "[1]; growth in nicotinamide before glucose stimulation, Western blot, FIG. 2", "result": "increased"}
    ]}
  ]
}
